Biological target: T1, human NOX1 (hNOX1) (Homo sapiens, UniProt Q9Y5S8)
T1 construct: pLV-CMV-hNOX1-puro (NM_007052.5); host or cells: HEK293 (CLS GmbH), lentiviral transduction
T1 sequence (Q9Y5S8 1-564): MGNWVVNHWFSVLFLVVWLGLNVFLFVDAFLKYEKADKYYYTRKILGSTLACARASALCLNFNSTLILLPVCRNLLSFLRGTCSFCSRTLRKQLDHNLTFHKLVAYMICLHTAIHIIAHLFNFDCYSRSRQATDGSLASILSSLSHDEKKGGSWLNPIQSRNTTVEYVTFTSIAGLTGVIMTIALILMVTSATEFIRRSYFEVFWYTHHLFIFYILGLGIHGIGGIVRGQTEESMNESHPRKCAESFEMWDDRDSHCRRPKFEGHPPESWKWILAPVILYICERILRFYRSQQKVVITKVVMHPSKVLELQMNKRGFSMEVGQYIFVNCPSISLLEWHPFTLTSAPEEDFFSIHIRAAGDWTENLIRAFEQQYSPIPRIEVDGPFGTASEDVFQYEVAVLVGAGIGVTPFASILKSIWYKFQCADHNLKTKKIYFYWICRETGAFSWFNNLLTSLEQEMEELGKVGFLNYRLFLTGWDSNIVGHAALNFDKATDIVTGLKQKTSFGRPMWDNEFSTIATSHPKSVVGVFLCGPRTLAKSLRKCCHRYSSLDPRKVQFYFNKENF
T1 sequence (P13498 2-195 partner limits assumed): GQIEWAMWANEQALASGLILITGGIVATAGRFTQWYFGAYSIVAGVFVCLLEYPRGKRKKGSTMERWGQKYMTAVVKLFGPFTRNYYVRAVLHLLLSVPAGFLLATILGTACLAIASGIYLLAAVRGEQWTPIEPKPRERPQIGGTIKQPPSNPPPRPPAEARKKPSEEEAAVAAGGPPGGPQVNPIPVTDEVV
Test: NOX1 inhibition assay (L-012), HEK293 cells stably overexpressing human NOX1
Type: cell-based
Conditions: HEK293-hNOX1, PMA stimulated
Text: Plasmids are Purchased from Vectorbuilder. • for HEK-hNOX1 all necessary subunits are cloned accordingly: • pLV-CMV-hNOX1-puro (NM_007052.5) • pLV-CMV-hNOXO1-blas (NM_172168.3) • pLV-CMV-hp22phox-hygro (NM_000101.4) • pLV-CMV-hNOXA1-neo (NM_006647.2) • for HEK-hNOX3 • pLV-CMV-hNOX3-puro (NM_015718.3)
3rd generation lentiviral particles are produced in HEK293 suspension cells by transient transfection of three helper and expression plasmids. Crucial lentivirus supernatants are harvested, clarified by filtration and concentrated by precipitation. Lentivirus titers are determined in transducing units in (TU/mL) by transduction of HT1080 cells and colony forming assay. Parental HEK293 cells, purchased from CLS GmbH, are transduced with replication-incompetent 3rd generation lentiviral particles (MOI 2) and expanded for at least 2 weeks before cryopreservation of tested lots. During cultivation, medium is changed three times per week and cells are sub-cultured at least once per week. Selection antibiotics are added according to the plasmids (1 μg/ml puromycin, 1.5 μg/ml blasticidin, 200 μg/ml G418 and 100 μg/ml hygromycin).
Evaluation of the NOX4 inhibitors on NOX1 activity is assessed in HEK293 cells stably overexpressing human NOX1 (hNOX1).
Lastly, 8-amino-5-chloro-2,3-dihydro-7-phenyl-pyrido[3,4-d]pyridazine-1,4-dione sodium salt (L-012, CAS 143556-24-5) is added at 400 μM to all wells, and cells are incubated in an incubator for an additional 3 h. Afterwards luminescence is measured with a SpectraMax Paradigm Microplate Reader.

Structure (SMILES)	IC50
Cc1cc(F)ccc1CSc1nc2ncsc2c(=O)n1-c1ccc(O)nc1 [Example 29]	33.3 µM
O=c1c2scnc2nc(SCc2ccc(Cl)cc2F)n1-c1ccc(O)nc1 [Example 22, 5-((4-Chloro-2-fluorobenzyl)thio)-6-(6-hydroxypyridin-3-yl)thiazolo[4,5-d]pyrimidin-7(6H)-one]	> 100 µM
O=c1c2scnc2nc(SCc2c(F)cc(F)cc2F)n1-c1ccc(O)cn1 [Example 19]	16.9 µM
O=c1c2scnc2nc(SCc2ccc(F)cc2F)n1-c1cnc(O)c(F)c1 [Example 38]	> 100 µM
N#Cc1cc(-n2c(SCc3c(F)cc(F)cc3F)nc3ncsc3c2=O)ccc1O [Example 18]	0.06 µM
O=c1c2scnc2nc(SCc2ccc(C(F)(F)F)cc2F)n1-c1cc(F)c(O)c(F)c1 [Example 6]	> 100 µM
Cc1cc(F)ccc1CSc1nc2ncsc2c(=O)n1-c1cc(F)c(O)c(F)c1 [Example 9]	1.9 µM
Cc1cc(Cl)ccc1CSc1nc2ncsc2c(=O)n1-c1ccc(O)nc1 [Example 23]	48.1 µM
Cc1cc(Cl)ccc1CSc1nc2ncsc2c(=O)n1-c1cc(F)c(O)c(F)c1 [Example 3]	1.7 µM

Now from value to molecule:

IC50	Structure (SMILES)
11 µM	Cc1cc(F)ccc1CSc1nc2ncsc2c(=O)n1-c1ccc(O)nn1 [Example 68]
21 µM	O=c1c2scnc2nc(SCc2c(F)cc(F)cc2F)n1-c1cnc(O)nc1 [Example 59]
3 µM	O=c1c2scnc2nc(SCc2c(F)cc(F)cc2F)n1-c1cc(F)c(O)nc1F [Example 51, 6-(2,5-Difluoro-6-hydroxypyridin-3-yl)-5-((2,4,6-trifluorobenzyl)thio)thiazolo[4,5-d]-pyrimidin-7(6H)-one]
11.8 µM	Cc1cc(F)ccc1CSc1nc2ncsc2c(=O)n1-c1cnc(O)nc1 [Example 58]
> 100 µM	O=c1c2scnc2nc(SCc2ccc(C(F)(F)F)cc2F)n1-c1ccc(O)nn1 [Example 65]
27.6 µM	O=c1c2scnc2nc(SCc2c(F)cc(F)cc2F)n1-c1ccc(O)nc1F [Example 50, 6-(2-Fluoro-6-hydroxypyridin-3-yl)-5-((2,4,6-trifluorobenzyl)thio)thiazolo[4,5-d]-pyrimidin-7(6H)-one]
